The results in this text go back to article PMC5739597, “Discovery and evaluation of triple inhibitors of VEGFR-2, TIE-2 and EphB4 as anti-angiogenic and anti-cancer agents” (Oncotarget, 2017).

Usually IC50 stands for the concentration needed to halve the response being measured.

Structures are written as SMILES. Bounds are passed on as bounds.

In one data set the target is T1, EphB4 (Homo sapiens, UniProt P54760).
T1 sequence (P54760 16-987): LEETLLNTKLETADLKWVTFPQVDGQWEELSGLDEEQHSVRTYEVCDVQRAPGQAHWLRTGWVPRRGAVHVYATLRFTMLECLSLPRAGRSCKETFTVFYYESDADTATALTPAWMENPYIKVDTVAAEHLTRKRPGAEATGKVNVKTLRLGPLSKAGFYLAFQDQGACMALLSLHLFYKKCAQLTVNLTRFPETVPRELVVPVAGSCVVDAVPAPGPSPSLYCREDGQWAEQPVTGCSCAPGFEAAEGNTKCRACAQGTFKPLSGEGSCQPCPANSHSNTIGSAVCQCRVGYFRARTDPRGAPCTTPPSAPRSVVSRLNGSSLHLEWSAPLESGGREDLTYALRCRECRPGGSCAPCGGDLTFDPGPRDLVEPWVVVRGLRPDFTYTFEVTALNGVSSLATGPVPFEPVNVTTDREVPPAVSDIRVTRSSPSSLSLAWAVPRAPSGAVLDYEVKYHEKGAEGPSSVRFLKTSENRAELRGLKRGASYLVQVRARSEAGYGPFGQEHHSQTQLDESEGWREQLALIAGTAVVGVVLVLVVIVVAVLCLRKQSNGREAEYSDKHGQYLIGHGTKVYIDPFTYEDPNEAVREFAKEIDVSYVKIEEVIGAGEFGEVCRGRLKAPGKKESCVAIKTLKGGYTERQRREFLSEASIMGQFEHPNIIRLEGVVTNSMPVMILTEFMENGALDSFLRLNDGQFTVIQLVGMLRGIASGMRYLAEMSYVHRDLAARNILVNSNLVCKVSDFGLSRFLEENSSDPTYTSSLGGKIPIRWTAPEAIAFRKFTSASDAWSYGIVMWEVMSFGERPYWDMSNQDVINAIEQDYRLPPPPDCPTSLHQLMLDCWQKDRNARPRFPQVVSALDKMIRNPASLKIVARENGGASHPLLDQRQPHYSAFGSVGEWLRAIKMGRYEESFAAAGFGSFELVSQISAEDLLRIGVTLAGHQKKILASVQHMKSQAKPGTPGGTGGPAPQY
Briefly: ADP-Glo in vitro RTK inhibition assay, EphB4. It is filed as biochemical. The following applies: ATP 50 μM. The method, then: In order to validate the direct effect of title compounds on VEGFR-2, Tie-2, and EphB4 kinases, we performed in vitro assay using the ADP-Glo Kinase Assay Kit (Promega, Wisconsin, USA).
The kinase assay was performed in a reaction mixture of final volume of 10 μL. […] The plate was incubated at 30°C for 1 h. After the plate was cooled at room temperature for 5 min, 5 μL of ADP-Glo reagent was added into each well to stop the reaction and consume the remaining […] within 40 min. At the end, 10 μL of kinase detection reagent was added into the well and incubated for 30 min to produce a luminescence signal. […] The assay plate was incubated at 30°C for 4 h. After the plate was cooled at room temperature for 5 min, 5 μL of ADP-Glo reagent was added into each well to stop the reaction and consume the remaining […] within 1 h. At the end, 10 μL of kinase detection reagent was added into each well and incubated for 30 min to produce a luminescence signal. The luminescence was read by VICTOR-X multi-label plate reader.
(In general: ADP-Glo turns the ADP formed in a reaction into a luminescent signal.)

The target of the next data set is VEGFR-1 (Homo sapiens, UniProt P17948). Briefly: Kinase-Glo Plus RTK selectivity assay, VEGFR-1. It is filed as biochemical. Particulars: 10 μM ATP. The method, then:
(§1) A 50 μL reaction mixture contains 40 mM Tris, pH 7.4, 10 mM MgCl2, 0.1 mg/ml BSA, 1 mM DTT, 10 μM ATP, kinase and substrate (0.2 mg/mL Poly(Glu, Tyr)/10 μM ATP). The test compounds were diluted in 10% DMSO and 5 μL of the dilution was added to a 50 μL reaction so that the final concentration of DMSO is 1% in all of reactions. The assay was performed using Kinase-Glo Plus luminescence kinase assay kit. It measures kinase activity by quantitating the amount of ATP remaining in solution following a kinase reaction. The luminescent signal from the assay is correlated with the amount of ATP present and is inversely correlated with the amount of kinase activity. The IC50 values were calculated using nonlinear regression with normalized dose−response fit using Prism GraphPad software.
In general terms: In Kinase-Glo more light means more ATP remaining.

Another data set deals with B-Raf (Homo sapiens, UniProt P15056). Briefly: Kinase-Glo Plus RTK selectivity assay, B-Raf. Format: biochemical. The following applies: 10 μM ATP. The method, then: as §1
In another data set the target is EGFR (Homo sapiens, UniProt P00533). Briefly: Kinase-Glo Plus RTK selectivity assay, EGFR. Format: biochemical. The following applies: 10 μM ATP. The procedure:
as §1

For data set [1], the system named is human hepatic cancer cell lines (7721). Description: Anti-proliferative MTT assay, 7721. It is filed as cell-based. Particulars: 48 h. The procedure:
(§2) These RTKs play critical roles in the proliferation of various cancers. Therefore, RTKs inhibition generally translate well into anti-proliferation activity.
(§3) Exponentially growing cells were harvested and plated in 96-well plates at a concentration of 1×10^4 cells/well per well, and then were incubated at 37°C for 24 h. […] Subsequently, 22 μL fresh MTT (5 mg/mL) was added to each well and incubated at 37°C for 4 h. […] DMSO was added to each well after supernatant was discarded. Absorbance values were determined by a microplate reader (Bio-Rad Instruments) at 490 nm. The IC50 values were calculated according to inhibition ratios.

The subject of data set [2] is human breast cancer cell lines (MCF-7). Briefly: Anti-proliferative MTT assay, MCF-7. It is filed as cell-based. Particulars: MCF7, 48 h. The method, then: as §2, §3
For orientation: Tetrazolium dyes change colour on reduction, which living cells bring about.

The subject of data set [3] is human lung cancer cell (A549). Briefly: Anti-proliferative MTT assay, A549. It is filed as cell-based. Particulars: 48 h. The method, then:
as §2, §3

Data set [4] relates to human colon carcinoma cell line (LOVO). Briefly: Anti-proliferative MTT assay, LOVO. Format: cell-based. Particulars: 48 h. The method, then:
as §2, §3

In data set [5] the test system is normal human liver cells (QSG7701). Briefly: Cytotoxicity on normal cells, QSG7701. It is filed as cell-based. Particulars: MTT, 48 h, read-out: Anti-proliferative activity IC50, QSG7701 (normal cells). The method, then: In order to determine the anti-angiogenic effect of these multi-target inhibitors, we evaluated their effect on HECs (EA.hy926) viability using cell counting kit-8 (CCK-8) method.
as §2, §3

Another data set deals with MCF-7 xenograft. Briefly: In vivo MCF-7 xenograft mice model. The following applies: ig; for Final body weight / Tumor growth inhibition / Final tumor weight: 21 days; for Final tumor weight: control 0.848±0.5; for Initial body weight: before treatment.

EGFR, sequence (P00533 25-1210, species assumed): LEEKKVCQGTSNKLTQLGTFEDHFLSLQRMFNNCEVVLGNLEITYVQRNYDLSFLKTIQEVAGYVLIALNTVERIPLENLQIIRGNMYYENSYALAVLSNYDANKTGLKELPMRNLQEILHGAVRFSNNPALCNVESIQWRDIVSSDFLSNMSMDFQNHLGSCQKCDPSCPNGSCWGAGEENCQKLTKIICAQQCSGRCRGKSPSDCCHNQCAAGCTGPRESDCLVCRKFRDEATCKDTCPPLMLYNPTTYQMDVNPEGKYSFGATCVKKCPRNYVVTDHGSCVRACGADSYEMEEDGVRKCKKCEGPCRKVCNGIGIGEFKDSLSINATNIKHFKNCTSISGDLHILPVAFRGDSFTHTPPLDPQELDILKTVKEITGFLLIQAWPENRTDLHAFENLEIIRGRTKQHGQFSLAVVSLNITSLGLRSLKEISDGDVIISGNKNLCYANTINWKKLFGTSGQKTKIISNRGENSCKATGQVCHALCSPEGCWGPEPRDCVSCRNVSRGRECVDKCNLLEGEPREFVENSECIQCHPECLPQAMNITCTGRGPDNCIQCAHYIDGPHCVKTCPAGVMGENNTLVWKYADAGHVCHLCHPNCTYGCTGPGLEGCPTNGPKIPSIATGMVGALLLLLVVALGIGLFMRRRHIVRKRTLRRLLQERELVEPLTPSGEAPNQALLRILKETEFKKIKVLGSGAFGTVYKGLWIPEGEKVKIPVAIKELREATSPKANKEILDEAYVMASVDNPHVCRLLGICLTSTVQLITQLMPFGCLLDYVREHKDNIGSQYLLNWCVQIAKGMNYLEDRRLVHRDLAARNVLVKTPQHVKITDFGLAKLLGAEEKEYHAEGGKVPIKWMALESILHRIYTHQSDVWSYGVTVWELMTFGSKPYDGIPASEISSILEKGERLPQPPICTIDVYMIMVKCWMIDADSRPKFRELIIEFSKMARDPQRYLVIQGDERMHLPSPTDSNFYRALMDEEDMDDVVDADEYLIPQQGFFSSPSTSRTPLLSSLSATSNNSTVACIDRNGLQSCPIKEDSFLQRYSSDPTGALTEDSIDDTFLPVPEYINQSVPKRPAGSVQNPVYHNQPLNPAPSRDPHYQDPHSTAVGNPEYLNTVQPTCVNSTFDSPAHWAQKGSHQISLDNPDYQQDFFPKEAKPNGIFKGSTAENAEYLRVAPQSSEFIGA
B-Raf, sequence (P15056 whole entry, species assumed): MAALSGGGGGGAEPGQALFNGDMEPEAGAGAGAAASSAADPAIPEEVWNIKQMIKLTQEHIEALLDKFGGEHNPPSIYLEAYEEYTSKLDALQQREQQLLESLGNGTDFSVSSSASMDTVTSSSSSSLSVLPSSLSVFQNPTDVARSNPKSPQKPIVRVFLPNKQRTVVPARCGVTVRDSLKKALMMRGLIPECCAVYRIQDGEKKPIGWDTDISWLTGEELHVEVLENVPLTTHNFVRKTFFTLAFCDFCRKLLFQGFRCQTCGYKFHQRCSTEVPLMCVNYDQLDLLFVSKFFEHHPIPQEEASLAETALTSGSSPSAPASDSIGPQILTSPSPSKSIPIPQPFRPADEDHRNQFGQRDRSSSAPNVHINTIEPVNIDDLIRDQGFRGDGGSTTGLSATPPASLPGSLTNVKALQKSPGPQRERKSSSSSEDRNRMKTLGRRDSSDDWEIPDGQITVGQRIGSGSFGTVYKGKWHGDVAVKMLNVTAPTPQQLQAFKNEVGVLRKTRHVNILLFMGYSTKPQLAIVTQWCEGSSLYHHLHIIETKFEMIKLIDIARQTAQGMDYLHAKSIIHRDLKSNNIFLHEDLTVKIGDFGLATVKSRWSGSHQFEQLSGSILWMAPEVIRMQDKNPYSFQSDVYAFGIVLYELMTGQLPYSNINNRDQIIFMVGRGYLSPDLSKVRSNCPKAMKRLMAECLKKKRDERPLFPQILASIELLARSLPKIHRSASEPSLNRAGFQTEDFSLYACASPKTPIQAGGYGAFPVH
VEGFR-1, sequence (P17948 27-1338, species assumed): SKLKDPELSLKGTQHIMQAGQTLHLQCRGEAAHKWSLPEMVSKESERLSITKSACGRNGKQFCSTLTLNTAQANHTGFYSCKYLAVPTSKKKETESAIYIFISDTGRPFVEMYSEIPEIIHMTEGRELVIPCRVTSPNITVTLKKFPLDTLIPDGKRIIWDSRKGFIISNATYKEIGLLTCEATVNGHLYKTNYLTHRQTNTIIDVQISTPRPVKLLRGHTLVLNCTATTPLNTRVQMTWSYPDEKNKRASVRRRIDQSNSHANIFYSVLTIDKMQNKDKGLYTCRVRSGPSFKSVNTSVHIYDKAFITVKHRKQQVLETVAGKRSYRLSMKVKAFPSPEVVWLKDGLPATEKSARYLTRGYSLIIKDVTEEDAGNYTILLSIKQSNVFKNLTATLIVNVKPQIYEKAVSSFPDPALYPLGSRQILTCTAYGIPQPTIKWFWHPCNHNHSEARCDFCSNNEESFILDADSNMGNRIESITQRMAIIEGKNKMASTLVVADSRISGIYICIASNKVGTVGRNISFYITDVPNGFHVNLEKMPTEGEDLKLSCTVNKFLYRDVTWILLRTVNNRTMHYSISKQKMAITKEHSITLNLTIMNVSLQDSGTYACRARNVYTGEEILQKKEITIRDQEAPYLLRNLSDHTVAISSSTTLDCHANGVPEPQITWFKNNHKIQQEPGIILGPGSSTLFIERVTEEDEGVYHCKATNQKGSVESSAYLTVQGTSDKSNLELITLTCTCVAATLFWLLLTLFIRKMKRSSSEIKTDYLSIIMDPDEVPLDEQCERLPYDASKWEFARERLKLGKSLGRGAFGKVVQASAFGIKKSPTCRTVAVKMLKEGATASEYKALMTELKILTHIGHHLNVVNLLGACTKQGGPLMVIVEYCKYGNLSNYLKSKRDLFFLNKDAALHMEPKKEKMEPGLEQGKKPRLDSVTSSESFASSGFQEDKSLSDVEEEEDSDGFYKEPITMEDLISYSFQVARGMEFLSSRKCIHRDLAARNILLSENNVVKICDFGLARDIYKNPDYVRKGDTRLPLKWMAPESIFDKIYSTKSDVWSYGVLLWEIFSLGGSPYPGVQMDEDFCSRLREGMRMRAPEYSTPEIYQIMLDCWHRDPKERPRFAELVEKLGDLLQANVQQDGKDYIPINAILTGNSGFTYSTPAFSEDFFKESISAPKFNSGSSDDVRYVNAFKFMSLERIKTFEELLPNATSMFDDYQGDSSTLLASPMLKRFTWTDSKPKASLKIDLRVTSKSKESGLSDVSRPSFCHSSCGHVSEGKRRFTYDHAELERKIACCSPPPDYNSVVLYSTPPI
Protocol for MCF-7 xenograft: Six-week old female BALB/c mice were purchased from Shanghai Laboratory Animal center of the Chinese Academy of Sciences and housed under aseptic and ventilated condition. The mice were inoculated by subcutaneous injection with MCF-7 cancer cells suspended in 5% saline. Tumor volume and weight were measured on alternate days. Body weights were monitored as an indicator of toxicity. […] Treatment started from the next day and continued for 21 days. All mice were killed at the end of the experiment, and subcutaneous tumors were removed and weighted.

On to `O=C(Nc1ccc(-c2ccc3c(=O)[nH]cnc3c2)cc1)Nc1ccc(F)c(F)c1` [QDAU5, 1-(3,4-difluorophenyl)-3-(4-(4-oxo-3,4-dihydroquinazolin-7-yl)phenyl)urea], for which the IC50 against EphB4 was 3.21 nM; on VEGFR-1, 192 nM; at B-Raf, greater than 500 nM; at EGFR, 98.8 nM; in data set [1], 58700 nM; in data set [2], 2120 nM. Further, the results for the IC50 in data set [3], in data set [4] and in [5] were 8370 nM, 4990 nM and greater than 100000 nM, respectively. Further, the Final body weight in the data set with MCF-7 xenograft (20 mg/kg daily) worked out at 17.4 ± 1.0 g; in the data set on MCF-7 xenograft (40 mg/kg daily), 18.9 ± 1.2 g; in the data set on MCF-7 xenograft (80 mg/kg daily), 16.1 ± 1.0 g. Besides, the Tumor growth inhibition in the data set with MCF-7 xenograft (20 mg/kg daily) is reported as 7.2%; in the data set with MCF-7 xenograft (40 mg/kg daily, 40 mg/kg), 24%; in the data set with MCF-7 xenograft (80 mg/kg daily, 80 mg/kg), 47%. Also, the Final tumor weight with MCF-7 xenograft (20 mg/kg daily) was 0.787 ± 0.7 g; in the data set on MCF-7 xenograft (40 mg/kg daily), 0.642 ± 0.8 g; in the data set with MCF-7 xenograft (80 mg/kg daily) it was 0.449 ± 0.9 g. The Initial body weight stood at 18.7 ± 0.8 g in the data set on MCF-7 xenograft (20 mg/kg), 18.4 ± 0.6 g in the data set with MCF-7 xenograft (40 mg/kg) and 18.3 ± 0.7 g in the data set with MCF-7 xenograft (80 mg/kg).
